Measured values: publication PMC2363125 (British Journal of Cancer, 1999)
“And” between values parts separate entries of the source, which are not always exact repeats. Identical values can stand only once. “Also recorded” adds a separate entry of the source.

How the values were obtained:
L1210 cells [1] = experiment: Growth inhibition assay, CB3717 with or without thymidine and transport inhibitor, 48 h cell count; type: cell-based, murine; settings: for % Control cell growth + 3 M CB3717, + 1 M TdR / % Control cell growth + 3 M CB3717, no TdR / % Control cell growth + 10 M CB3717, + 1 M TdR / % Control cell growth + 10 M CB3717, no TdR: 10 μM transport inhibitor, normalized to inhibitor alone
[2] = system: thymidine uptake (nucleoside transport, es and ei equilibrative carriers) in L1210 cells; experiment: Nucleoside transport inhibition assay (thymidine uptake, rapid mixing technique); type: cell-based, murine; settings: for IC50: absence of AGP, point-to-point curve; for IC50 / % inhibition of thymidine uptake: L1210
Text: Antimetabolite inhibitors of de novo purine and pyrimidine synthesis are used extensively in cancer chemotherapeutic regimes (Schilsky, 1992). In particular, inhibition of thymidylate synthase (TS) is an attractive target for antimetabolite chemotherapy because thymine is the only nucleobase found exclusively in DNA and TS is a key enzyme, possibly the rate-limiting step, in DNA synthesis. One locus of action of 5-fluorouracil (5-FU), which is widely used for the treatment of colorectal, breast and head-and- neck cancer, is TS inhibition following its intracellular conversion to 5-FdUMP. […] Inhibition of TS results in the depletion of intracellular dTTP and, as a result of elevated dUMP levels, an accummulation of dUTP. This nucleotide pool imbalance contributes to DNA strand breakage and cell death (Curtin et al, 1991). […] Furthermore, resistance to antimetabolities mediated by nucleoside salvage may increase with malignancy (Fox et al, 1991; Kinsella and Harran, 1991). In addition, release of nucleic acids from dead cells may result in high local concen- trations of salvageable nucleosides and bases in tumours. Salvage of pre-formed nucleosides is dependent on uptake across the plasma membrane into the cell. At physiological nucle- oside concentrations the principal mode of nucleoside uptake is via the es and ei equilibrative carriers, described as such on the basis of their sensitivity (es) or insensitivity (ei) to the transport inhibitor nitrobenzylmercaptopurine riboside (NBMPR). […] Two antifolate TS inhibitors were selected for study: the classical antifolate, CB3717 (N10 -pro- pargyl-5,8-dideazafolic acid), and the non-classical antifolate TS inhibitor, nolatrexed (AG337, Thymitaq, 3,4-dihydro-2-amino- 6-methyl-4-oxo-5-(4-pyridylthio)-quinazoline dihydrochloride) (Webber et al, 1996). In addition, potentiation of the cytotoxicity of 5-FU was investigated. […] MATERIALS AND METHODS Drugs CB3717 (a gift from Zeneca Pharmaceuticals, Alderley Park, UK) was dissolved in 0.15 M sodium hydrogen carbonate and stored at 4C. […] All other chemicals were obtained from Sigma unless stated otherwise. Cell culture Murine leukaemia L1210 cells were used because their nucleoside transport characteristics have been well defined (Crawford et al, 1990). Cells were maintained as exponentially growing cultures (< 8 x 10^5 cells ml-1 ) in RPMI-1640 medium supplemented with 10% (v/v) fetal calf serum (Sigma), at 37C in an atmosphere of 5% carbon dioxide in air. […] For growth inhibition and cytotoxicity assays, cells were adapted to grow in RPMI medium supplemented with 10% (v/v) dialysed serum (dialysed for 24 h at 4C against two changes of 9 volumes of phosphate-buffered saline (PBS) containing 1 g activated charcoal L-1 and a further two changes of 9 volumes of PBS) to remove thymidine. […] Cells were routinely tested to exclude mycoplasma contamination (Chen, 1977). Nucleoside transport inhibition assay Thymidine uptake was assayed in L1210 cells using a modifica- tion of the rapid mixing technique of Wohlheuter et al (1978). The uptake of 100 µM thymidine by […] was followed at 2-second intervals over a 12-second time course in the presence or absence of inhibitor in 1% or 5% (v/v) DMSO. In experiments to determine the effect of AGP, the uptake of thymidine was also measured in the presence of 5 mg ml-1 human AGP (Sigma), which is the upper limit of plasma AGP concentrations in cancer patients, i.e. approx- imately 125 M (Kremer et al, 1988).

human cancer cell lines = system: human cancer cell lines; design: method as in P Smith, manuscript in preparation; settings: ref P Smith, manuscript in preparation; cited from earlier work
[3] = system: thymidine transport (nucleoside transporter) in L1210 cells; experiment: Inhibition kinetics of thymidine transport (Kt, Tmax, Dixon plot Ki)
Text: (§1) In particular, inhibition of thymidylate synthase (TS) is an attractive target for antimetabolite chemotherapy because thymine is the only nucleobase found exclusively in DNA and TS is a key enzyme, possibly the rate-limiting step, in DNA synthesis. One locus of action of 5-fluorouracil (5-FU), which is widely used for the treatment of colorectal, breast and head-and- neck cancer, is TS inhibition following its intracellular conversion to 5-FdUMP. […] Inhibition of TS results in the depletion of intracellular dTTP and, as a result of elevated dUMP levels, an accummulation of dUTP. […] In addition, release of nucleic acids from dead cells may result in high local concen- trations of salvageable nucleosides and bases in tumours. Salvage of pre-formed nucleosides is dependent on uptake across the plasma membrane into the cell. At physiological nucle- oside concentrations the principal mode of nucleoside uptake is via the es and ei equilibrative carriers, described as such on the basis of their sensitivity (es) or insensitivity (ei) to the transport inhibitor nitrobenzylmercaptopurine riboside (NBMPR). […] In addition, potentiation of the cytotoxicity of 5-FU was investigated. […] All other chemicals were obtained from Sigma unless stated otherwise. […] For growth inhibition and cytotoxicity assays, cells were adapted to grow in RPMI medium supplemented with 10% (v/v) dialysed serum (dialysed for 24 h at 4C against two changes of 9 volumes of phosphate-buffered saline (PBS) containing 1 g activated charcoal L-1 and a further two changes of 9 volumes of PBS) to remove thymidine. […] The uptake of 100 M thymidine by […] was followed at 2-second intervals over a 12-second time course in the presence or absence of inhibitor in 1% or 5% (v/v) DMSO. […] Exponentially growing L1210 cells were washed with and resus- pended in ice-cold transport buffer (130 mM sodium chloride, 5 mM potassium chloride, 1 mM magnesium chloride, 5 mM NaH2 PO4 , 10 mM glucose and 10 mM HEPES pH 7.4) at 2-4 x 10^7 cells ml-1 . […] Transport was initiated by adding 50 l of 300 M thymidine in transport buffer, containing 25 Ci ml-1 [methyl-3 H]thymidine (Sp. Act. 1.5-2.2 TBq mmol-1; Amersham, UK) and 2 Ci ml-1 [U-14 C]sucrose (17-27 GBq mmol-1; Amersham), to each tube in turn at 1-second intervals, giving final concentrations of: […] in transport buffer 5 mg ml-1 AGP, 100 M thymidine and 1% or 5% (v/v) DMSO inhibitor. […] The tubes were immediately centrifuged at 12 000g for 2 min at room temperature causing the cells to pass through the oil and into the KOH. […] Cell number and viability in each assay was determined by haemocytometer counting using trypan blue exclu- sion. After centrifugation the tubes were capped and cut in the oil layer such that the bottom portion (cells solubilized in KOH) fell into a 20 ml scintillation vial. […] The rate of thymidine uptake in the presence and absence of inhibitor was calculated by unweighted linear regres- sion analysis of thymidine uptake (pmol 10-6 cells) vs time (seconds) using GraphPad PRISMTM software (GraphPad Software Inc. San Diego, CA, USA). […] Kt and Tmax values were calculated using the equation describing a one-site binding hyperbola, fitted using GraphPad PRISM software. […] The DMSO concentration was controlled so as to be present at 1% (v/v) in the final incubation. Replicate aliquots of the remaining cell suspension were counted to obtain a time zero cell count.

L1210 cells [4] = experiment: in vitro; settings: for CC50: Mus musculus, L1210, 16 h, read-out: LC50
Text: as §1

[5] = 1 μM transport inhibitor, data not shown
[6] = inhibitor 1 μM, no AGP, 100 μM thymidine
[7] = inhibitor 10 μM + 5 mg ml-1 AGP
[8] = inhibitor 10 μM, no AGP, 100 μM thymidine
[9] = LC50 alone/LC50 + 1 μM inhibitor

Row | Structure (SMILES) | % Control cell growth + 3 M CB3717, + 1 M TdR (L1210 cells [1]; 48 h) [%] | % Control cell growth + 3 M CB3717, no TdR (L1210 cells [1]; 48 h) [%] | % Control cell growth + 10 M CB3717, + 1 M TdR (L1210 cells [1]; 48 h) [%] | % Control cell growth + 10 M CB3717, no TdR (L1210 cells [1]; 48 h) [%] | IC50 [2] | % inhibition of thymidine uptake [2, 6] [%] | % inhibition of thymidine uptake [2, 7] [%] | % inhibition of thymidine uptake [2, 8] [%] | also measured
1 | COCC(COc1nc(N2CCCCC2)c2nc(OCC(COC)OC)nc(N3CCCCC3)c2n1)OC (stereo not drawn) [NU3059, 2,6-bis-(2,3-dimethoxypropoxy)-4,8-di-piperidino-pyrimidopyrimidine] | 10 | 5 | 7 | 0 | 1900 nM | 38 | 67 | 87 | potentiation of CB3717 growth inhibition (L1210 cells [1]; [5]): modest potentiation; reversal of thymidine rescue from CB3717 growth inhibition (L1210 cells [1]; [5]): partial reversal
2 | CC1(C)OCC(COc2nc(N3CCCCC3)c3nc(OCC4COC(C)(C)O4)nc(N4CCCCC4)c3n2)O1 (stereo not drawn) [NU3026, 2,6-di-(2,2-dimethyl-1,3-dioxolan-4-yl)-methoxy-4,8-di-piperidinopyrimido-pyrimidine] | 26 | 8 | 20 | 1 | 1200 nM and 1100 nM | 47 | 62 | 87 | potentiation of CB3717 growth inhibition (L1210 cells [1]; [5]): modest potentiation
3 | COc1ccc(CNc2nc(N(CCO)CCO)nc3c(NCc4ccc(OC)cc4)nc(N(CCO)CCO)nc23)cc1 [NU3076] |  |  |  |  | 250 nM | 56 | 89 | 96 | effect of AGP on inhibition of thymidine uptake ([2]; AGP 5 mg ml-1, inhibitor 1 and 10 μM): not significantly affected; % inhibition of thymidine uptake ([2]; inhibitor 1 μM + 5 mg ml-1 AGP): 46%; block of thymidine rescue from TS inhibitor cytotoxicity (human cancer cell lines): can block thymidine rescue; type of inhibition of thymidine uptake ([3]; L1210): mixed-type inhibition; Ki ([3]; read-out: Ki for inhibition of thymidine uptake, L1210, abstract): 100 nM; cell survival, inhibitor alone (cytotoxic per se) (L1210 cells [4]; 1 μM inhibitor alone, L1210): 100%; prevention of thymidine rescue from nolatrexed cytotoxicity (L1210 cells [4]; 1 μM inhibitor, 10 μM nolatrexed + 1 μM thymidine): partially blocked; also recorded: reduced but not blocked completely; potentiation of 5-FU cytotoxicity (L1210 cells [4]; 1 μM inhibitor, high 5-FU concentrations (30 and 100 μM), not significant at lower concentrations): Significant potentiation; EF50 (enhancement factor), 5-FU (L1210 cells [4]; [9]): 1.1; EF50 (enhancement factor), nolatrexed (L1210 cells [4]; [9]): 1.6; EF90 (enhancement factor), 5-FU (L1210 cells [4]; LC90 alone/LC90 + 1 μM inhibitor): 1.3; reduction of nolatrexed LC90 (L1210 cells [4]; absence of salvageable thymidine, abstract): > threefold
4 | O=c1[nH]cc(F)c(=O)[nH]1 [5-FU, 5-fluorouracil] |  |  |  |  |  |  |  |  | CC50 (L1210 cells [4]): 3700 nM
5 | COCCN(CCOC)c1nc(N2CCCCC2)c2nc(N(CCOC)CCOC)nc(N3CCCCC3)c2n1 [NU3060, 2,6-bis[N,N-di(2-methoxy)ethyl]-4,8-di-piperidino-pyrimidopyrimidine] | 59 | 29 | 37 | 3 | 2100 nM | 29 | 43 | 86 | 
6 | Cc1ccc2nc(N)[nH]c(=O)c2c1Sc1ccncc1.Cl.Cl [Nolatrexed, 3,4-dihydro-2-amino-6-methyl-4-oxo-5-(4-pyridylthio)-quinazoline dihydrochloride] |  |  |  |  |  |  |  |  | effect of 1 μM thymidine on cytotoxic effect of 10 μM nolatrexed (L1210 cells [4]): completely prevented; cells surviving (L1210 cells [4]; 10 μM nolatrexed alone, 16 h): 10-20%; CC50 (L1210 cells [4]): 3100 nM
7 | C#CCN(Cc1ccc2nc(N)[nH]c(=O)c2c1)c1ccc(C(=O)N[C@@H](CCC(=O)O)C(=O)O)cc1 [CB3717, N10-propargyl-5,8-dideazafolate, reference compound] |  |  |  |  |  |  |  |  | % Control cell growth, 3 M CB3717, + 1 M TdR (L1210 cells [1]; No inhibitor, 48 h): 104%; % Control cell growth, 3 M CB3717, no TdR (L1210 cells [1]; No inhibitor, 48 h): 40%; % Control cell growth, 10 M CB3717, + 1 M TdR (L1210 cells [1]; No inhibitor, 48 h): 107%; % Control cell growth, 10 M CB3717, no TdR (L1210 cells [1]; No inhibitor, 48 h): 5%
